Experiments:
[1] = target: neutrophil elastase in human plasma (Homo sapiens (Human), UniProt P08246); assay: Assay for the Determination of Neutrophil Elastase Inhibitory Activity in Human Plasma; format: biochemical; conditions: neutrophil elastase enriched human plasma (zymosan-stimulated blood)
Procedure: Assay for the Determination of Neutrophil Elastase Inhibitory Activity in Human Plasma
Citrated blood from human healthy donors is mixed with zymosan suspension and incubated at room temperature. This leads to the stimulation of neutrophils and the release of neutrophil elastase into the plasma. The stimulated blood is centrifuged to generate the neutrophil elastase enriched plasma.
Preparation of Zymosan Working Solution:
• single 45 ml blood sample is taken into a 50 ml tube containing citrate (3.13%, 5 mL) and the tube is gently inverted 4 times. • Immediately after blood sampling, zymosan working solution (5 mL) is added. • After the addition of zymosan working solution, the tubes are capped, mixed gently and incubated at 22° C. for 15 min on a shaker at 20 rpm. • Make 10 ml aliquots after the incubation time. • Centrifuge the 15 ml tubes at 800 g for […] at 4° C. in a Jouan centrifuge. • Harvest the plasma and make 1-5 ml aliquots. • Store the plasma at −80° C.
Various concentrations of the neutrophil elastase inhibitor are incubated with plasma. Subsequently, the enzyme activity is measured using the fluorogenic substrate MeOSuc-Ala-Ala-Pro-Val-AMC (Bachem Cat. No. 1-1270, substrate concentration: 250 μM, pH 7.5, 25 mM TRIS buffer, 250 mM NaCl) in analogous fashion as described for the human neutrophil assay. A dose response curve is generated to calculate the EC50 of the inhibitor. The analysis of the data is performed by the calculation of the percentage of fluorescence in the presence of the test compound compared to the fluorescence of the vehicle control after subtracting the background fluorescence: An inhibitor of the neutrophil elastase enzyme will give values between 100% control (no inhibition) and 0% control (complete inhibition). The human plasma shift of selected compounds can be calculated using the following equation: Human plasma shift=(EC50 in human plasma assay)/(IC50 in human neutrophil elastase assay) The EC50 values of selected compounds in the human plasma assay described above are listed in Table 14.

[2] = Assay for the Determination of Metabolic Stability with Human Hepatocytes; format: in vitro ADME; conditions: scaled with well stirred model
Procedure: Assay for the Determination of Metabolic Stability with Human Hepatocytes
The metabolic degradation of the test compound is assayed in a human hepatocyte suspension. Human hepatocytes (typically cryopreserved) are incubated in an appropriate buffer system (e.g. Dulbecco's modified eagle medium plus 3.5 μg glucagon/500 mL, 2.5 mg insulin/500 mL and 3.75 mg/500 mL hydrocortison) containing 5% species serum. Following a (typically) […] preincubation in an incubator (37° C., 10% CO2), 5 μl of test compound solution (80 μM; from 2 mM stock solution in DMSO diluted 1:25 with medium) are added into 395 μl hepatocyte suspension (cell density in the range 0.25-5*10^6 cells/mL, typically 1*10^6 cells/mL; final concentration of test compound 1 μM, final DMSO concentration […]). The cells are incubated for six hours (incubator, orbital shaker) and samples (25 μl) are taken at 0, 0.5, 1, 2, 4 and 6 hours. Samples are transferred into acetonitrile and pelleted by centrifugation (5 min). The supernatant is transferred to a new 96-deepwell plate, evaporated under nitrogen and resuspended. The decline of parent compound is analyzed by LC-MS/MS.
The intrinsic clearance CL_[…] is calculated as follows: CL_[…]=Dose/AUC=(C0/CD)/(AUD+clast/k)*1′000/60 (C0: initial concentration in the incubation [μM], CD: cell density of vital cells [10^6 cells/mL], AUD: area under the data [μM*h], clast: concentration of last data point [μM], k: slope of the regression line for parent decline [h^−1])
The calculated in vitro hepatic intrinsic clearance can be scaled up to the intrinsic in vivo hepatic clearance and used to predict hepatic in vivo blood clearance (CL) by the use of a is liver model (well stirred model): CL_[…]_INVIVO [ml/min/kg]=(CL_[…] [μL/min/10^6 cells]* hepatocellularity[10^6 cells/g liver]*liver factor[g/kg bodyweight])/1′000 CL[ml/min/kg]=CL_[…]_INVIVO [ml/min/kg]*hepatic blood flow [ml/min/kg]/(CL_[…]_INVIVO [ml/min/kg]+hepatic blood flow [ml/min/kg]) Qh[%]=CL[ml/min/kg]/hepatic blood flow[ml/min/kg]) (Hepatocellularity, human: 120*10^6 cells/g liver; lver factor, human: 25.7 g/kg bodyweight; blood flow, human: 21 ml/(min*kg))
The predicted human hepatic in vivo blood clearance (CL) of selected compounds in the metabolic stability assay described above are listed in Table 16.

[3] = Assay for Determination of Drug Transport Across Human CACO-2 Cells; format: in vitro ADME; conditions: human; for efflux ratio at 2 h, 10 nM: pH 7.2, Caco-2, PEBA/PEAB; for Papp A→B at 10 nM: Caco-2, apical-to-basal, read-out: PEAB; for Papp A→B at 10 nM / Papp B→A at 10 nM: pH 7.2, 37° C.; for Papp B→A at 10 nM: Caco-2, basal-to-apical, read-out: PEBA
Description: Assay for Determination of Drug Transport Across Human CACO-2 Cells
The assay provides information on the potential of a compound to pass the cell membrane, on the extent of oral absorption as well as on whether the compound is actively transported by uptake and/or efflux transporters. For the measurement of permeability across polarized, confluent human cancer colon carcinoma cells 2 (Caco-2) cell monolayers grown on permeable filter supports are used as the in vitro absorption model. Apparent permeability coefficients (PE) of the compounds across the Caco-2 monolayers are measured (pH 7.2, 37° C.) in apical-to-basal (AB) (absorptive) and basal-to-apical (BA) (secretory) transport direction. AB permeability (PEAB) represents drug absorption from the intestine into the blood and BA permeability (PEBA) drug secretion from the blood back into the intestine via both passive permeability as well as active transport mechanisms mediated by efflux and uptake transporters that are expressed on the Caco-2 cells. The compounds are assigned to permeability/absorption classes by comparison of the AB permeabilities with the AB permeabilities of reference compounds with known in vitro permeability and oral absorption in the human. Identical or similar permeabilities in both transport directions indicate passive permeation, vectorial permeability points to additional active transport mechanisms. […] Active transport is concentration-dependently saturable.
Caco-2 cells (1−2*10^5 cells/cm^2 area) are seeded on filter inserts (Costar transwell polycarbonate or PET filters, […] pore size) and cultured (DMEM) for 10 to 25 days. Compounds are dissolved in appropriate solvent (like DMSO, 1-20 mM stock solutions). Stock solutions are diluted with HTP-4 buffer (128.13 mM NaCl, 5.36 mM KCl, 1 mM MgSO4, 1.8 mM CaCl2, 4.17 mM NaHCO3, 1.19 mM Na2HPO4×7H2O, 0.41 mM NaH2PO4×H2O, 15 mM HEPES, 20 mM glucose, pH 7.2) to prepare the transport solutions (typically […] compound, final DMSO <=0.5%). The transport solution (TL) is applied to the apical or basolateral donor side for measuring A-B or B-A permeability (3 filter replicates), respectively. The receiver side contains HTP-4 buffer supplemented with 2% BSA. Samples are collected at the start and end of experiment from the donor and at various time intervals for up to 2 hours also from the receiver side for concentration measurement by LC-MS/MS or scintillation counting. Sampled receiver volumes are is replaced with fresh receiver solution.
The apparent permeability coefficients (PEAB and PEBA) and efflux ratios (PEBA/PEAB) of selected compounds in the Caco-2 drug transport assay described above are listed in Table 17.

neutrophil elastase in human plasma, sequence (P08246 30-267): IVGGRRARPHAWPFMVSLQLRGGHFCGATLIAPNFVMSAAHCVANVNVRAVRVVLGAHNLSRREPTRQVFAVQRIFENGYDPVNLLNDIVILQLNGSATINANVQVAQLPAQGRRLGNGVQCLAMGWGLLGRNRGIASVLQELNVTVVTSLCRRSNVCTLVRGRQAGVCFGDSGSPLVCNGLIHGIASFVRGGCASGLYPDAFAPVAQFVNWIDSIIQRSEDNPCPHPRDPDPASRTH

SMILES: CS(=O)(=O)c1cc(C#N)ccc1[C@H]1NC(=O)N(c2cccc(C(F)(F)F)c2)C2=C1C(=O)CCC2 (single isomer, unassigned) [Example 18A]
- EC50 [1]: 3 nM
- CL (predicted human hepatic in vivo blood clearance) [2]: 0 mL/min/kg
- efflux ratio at 2 h, 10 nM [3]: 4.2
- Papp A→B at 10 nM [3]: 20.9 ×10⁻⁶ cm/s
- Papp B→A at 10 nM [3]: 88.2 ×10⁻⁶ cm/s

SMILES: CS(=O)(=O)c1cc(C#N)ccc1[C@H]1NC(=O)N(c2cccc(C(F)F)c2)C2=C1C(=O)CCC2 (single isomer, unassigned) [Example 19A]
- EC50 [1]: 2 nM
- CL (predicted human hepatic in vivo blood clearance) [2]: 0 mL/min/kg
- efflux ratio at 2 h, 10 nM [3]: 6.7
- Papp A→B at 10 nM [3]: 11.4 ×10⁻⁶ cm/s
- Papp B→A at 10 nM [3]: 76.7 ×10⁻⁶ cm/s

SMILES: CNC(=O)N1C(=O)N(c2cccc(C(F)(F)F)c2)C2=C(C(=O)CCC2)[C@H]1c1ccc(C#N)cc1S(C)(=O)=O (single isomer, unassigned) [Example 47A]
- EC50 [1]: 1 nM
- CL (predicted human hepatic in vivo blood clearance) [2]: 0 mL/min/kg
- efflux ratio at 2 h, 10 nM [3]: 5.4
- Papp A→B at 10 nM [3]: 9.86 ×10⁻⁶ cm/s
- Papp B→A at 10 nM [3]: 53.5 ×10⁻⁶ cm/s

SMILES: CCS(=O)(=O)c1cc(C#N)ccc1[C@H]1NC(=O)N(c2cccc(C(F)(F)F)c2)C2=C1C(=O)CCC2 (single isomer, unassigned) [Example 54A]
- EC50 [1]: 1 nM
- CL (predicted human hepatic in vivo blood clearance) [2]: 2 mL/min/kg
- efflux ratio at 2 h, 10 nM [3]: 2.4
- Papp A→B at 10 nM [3]: 26 ×10⁻⁶ cm/s
- Papp B→A at 10 nM [3]: 61.7 ×10⁻⁶ cm/s

SMILES: CC(C)(O)CNC(=O)N1C(=O)N(c2cccc(C(F)(F)F)c2)C2=C(C(=O)CCC2)C1c1ccc(C#N)cc1 (stereo not shown) [Example 70.9]
- EC50 [1]: 15 nM
- CL (predicted human hepatic in vivo blood clearance) [2]: 0 mL/min/kg
- efflux ratio at 2 h, 10 nM [3]: 3.2
- Papp A→B at 10 nM [3]: 30.3 ×10⁻⁶ cm/s
- Papp B→A at 10 nM [3]: 96.1 ×10⁻⁶ cm/s
